Source: patent publication US11447533B2, “Antimicrobial and anticancer peptides and conjugates and compositions, methods, articles and kits relating thereto” (George Mason Research Foundation, Inc., priority 2018, dated 2022)
“Also recorded” adds a separate entry of the source.

Columns and labels:
[1] = Endotoxin binding: competitive displacement of BODIPY TR-Cadaverine from LPS; set-up: species or system Escherichia coli; details: 5 μM peptide; for LPS binding (BC displacement), in words: 10 μM BC, 10 μg/mL LPS, low ionic-strength 10 mM Na-PO4; for increase in affinity for LPS compared to the peptide lacking the hydrophobic tail: vs ATRA1 / ATRA1-R3W2
Protocol: FIGS. 2A-2B are graphs showing endotoxin binding. The figures depict the competitive displacement of BC from LPS/LTA by the peptides. 5 μM of each peptide was incubated with 10 μM BC and 10 μg/mL LPS from E. coli (0111:B4) or LTA from S. aureus. Fluorescence intensity was measured at excitation=580 nm and emission=620 nm. 10 μM BC without endotoxin was used as 100% displacement while 10 μM BC with 10 μg/mL LPS/LTA without any peptide as 0% displacement and the % displacement of BC by each peptide was calculated accordingly. […] had been used as a positive control. The horizontal dotted line coincides with the % displacement of BC by ATRA1 on the y-axis.
FIGS. 6A-6B are graphs showing endotoxin (LPS (FIG. 6A) and LTA (FIG. 6B)) binding. Competitive displacement of BC from LPS/LTA. In each case, 5 μM peptide was incubated with 10 μM BC and 10 μg/mL LPS from E. coli (0111:B4) or LTA from S. aureus. Fluorescence intensity was measured using excitation=580 nm and emission=620 nm. As a positive control 10 μM BC without endotoxin was used as a reference for 100% displacement while 10 μM BC with 10 μg/mL LPS/LTA without any peptide as a negative control and a reference for 0% displacement. These controls were used to calculate % BC displacement for each peptide.
Endotoxin Binding. The binding of endotoxin (LPS/LTA) was evaluated using a fluorogenic conjugateBODIPY TR-Cadaverine (BC). BC binds endotoxin loses its fluorescence. The peptide competitively displaces BC from endotoxin and the fluorescence is reestablished. Competitive inhibition of endotoxin-BC binding was utilized due to presence of peptides already in complexion with endotoxin. 25 μL of 20 μM of peptides in 10 mM Na—PO4 buffer were incubated with 25 μL of LPS (40 μg/mL) or LTA (40 μg/mL) for 15 min and then added with 50 μL of BC (20 uM). Peptides bind to LPS or LTA and competitively prevents BC bind to the endotoxin. BC loses its fluorescence on binding to endotoxin. The fluorescence intensity of the unbound BC was measured at excitation=580 nm and emission=620 nm.
BC contains two functional moieties: BODIPY (boron-dipyrromethene) and cadaverine connected via a carboxamide. BODIPY is the fluorophore of BC and fluoresces in the free state in solution but loses fluorescence when bound to LPS/LTA. The competitive displacement of BC from LPS/LTA by AMPs and thus regeneration of the fluorescence has frequently been used to estimate the binding strength of AMPs with LPS/LTA. In the present studies, 5 μM of each peptide was used to displace BC from LPS/LTA. […] Such observation contradicts the initial assumption that substitution of Lys with arginine would result in increased efficiency of LPS binding. However, with sequential substitutions of Lys with arginine, starting with ATRA1-AR, peptide variants show increased LPS binding with each additional arginine substitution. In terms of LPS binding: ATRA1-AR<ATRA1-AR2<ATRA1-AR3. In ATRA1-R3, the lysine residues at 9th, 5th and 1st positions of ATRA1 were substituted with arginine. In ATRA1-R6 all of the lysine residues were replaced with arginine.

[2] = test system: E. coli ML35p outer membrane; assay: Outer membrane disruption (β-lactamase leakage, nitrocefin); assay type: cell-based, Escherichia coli; details: for outer membrane disruption (β-lactamase activity) relative to HCMAB / time to reach maximum signal for nitrocefin hydrolysis: DPBS
Protocol: Interactions with Bacterial Membranes. Interaction of the peptides with bacterial membranes in different phosphate buffers were evaluated using E. coli ML35p, constructed in our laboratory. At first, competent cells of E. coli ML35 were produced by conventional competent cell preparation method, then transformed with pBR322 plasmid. Transformed colonies were selected after growing on Luria-agar containing 50 μg/mL ampicillin. A single transformed colony was grown in presence of ampicillin first in Luria broth and then in MHBII and stored as 20% glycerol stock at −80° C. This frozen stock, on the day of the experiment, was thawed and grown in MHBII containing ampicillin up to OD600 nm=0.8-0.9, washed with PBS and then suspended in the respective buffer up to the required OD600 nm for use.
Membrane Disruptions. The outer and the inner membrane disruptions by the peptides were evaluated by incubating bacterial suspension with peptides and then measuring the activity of enzymes leaked out of the cells. 100 μL of 10× concentration of peptide in water was incubated with 900 μL bacterial suspension (OD600 nm˜0.1) in respective buffer for 3 hours at room temperature with gentle rotation. Then the cells and debris were separated by centrifugation (10000 r.p.m. for 30 mins) and the supernatant was collected and tested for activity of enzymes that had leaked out of the bacterial cells. HCMAB was used as a positive control to cause 100% membrane disruption and water as a negative causing 0% disruption.
The outer membrane disruption was tested by using the activity of beta-lactamase present in the periplasmic space of E. coli ML35p. Peptides when disrupt the outer membrane enough to cause beta-lactamase to come out, the degree of disruption can be measured by the virtue of the kinetics of the enzyme and using a chromogenic cephalosporin substrate called nitrocefin. β-lactamase mediated hydrolyzed product of nitrocefin has an absorbance αmax=486 nm. Supernatant collected from the incubation of peptide with bacteria was added with nitrocefin solution in DPBS and incubated at 35° C. and continuous absorbance readings. The slope of the linear section of the absorbance curve (absorbance vs time), was used as a measure of membrane disruption and the % Disruption was calculated as: Equation 7: […]
Some of the ATRA1-variants were further tested for their ability to disrupt outer and inner membranes to form pores or disruptions sufficiently large so as to allow enzymes to leak out of their cellular compartments (cytoplasm or periplasmic space). For this purpose, two reporter molecules were used with one being the substrate of a cytoplasmic enzyme and the other was a substrate for an enzyme residing in the periplasmic space. One of the reporters, nitrocefin was the substrate for β-lactamase, which is present in the bacterial periplasm, whereas the other molecule, ONPG, was the substrate for β-galactosidase, which resides in the cytoplasm of E. coli ML35p strain. […] Similarly, β-galactosidase activity in the supernatants is evidence of inner membrane disruption and possible pore formation. When the aforesaid supernatants were tested for nitrocefin and ONPG hydrolysis, the corresponding absorbance increased with time (data not shown) indicating β-lactamase and β-galactosidase activity, respectively, and thus disruption of both the inner and outer membranes. The slopes of the increase in absorbance as a function of time provides the rate of enzyme activity. The enzyme activities in supernatants collected after incubation of bacteria with the quaternary ammonium surfactant, hexadecyltrimethylammonium bromide (HCMAB) was used as an internal reference for 100% membrane disruption. Enzyme activity for supernatants collected for cells incubated in the absence of peptide provided a reference for 0% membrane disruption. Bee venom peptide melittin was used as a positive control. […]

Sequence | LPS binding (BC displacement), in words [1] | outer membrane disruption (β-lactamase activity) relative to HCMAB ([2]; HCMAB = 100%) | time to reach maximum signal for nitrocefin hydrolysis [2] | also measured
KRAKKFFKKLK (SEQ ID NO: 4) [ATRA1-A] | decreased LPS binding relative to ATRA1 | – | – | –
KRAKKFFKRLK (SEQ ID NO: 6) [ATRA1-AR] | lowest LPS binding of all of the peptides tested | – | – | –
KRFKKFFKKLK (SEQ ID NO: 2) [ATRA1, first 11 residues of NA-CATH] | – | – | – | outer membrane disruption relative to HCMAB ([2]; 10 mM phosphate buffer, HCMAB = 100%): higher degree of disruption than ATRA1-R3W2
KRFKKFFKKLKGGVIGVTFPF (SEQ ID NO: 38) [ATRA1-HYD, ATRA1 with hydrophobic tail of NA-CATH joined at the C-terminus by a short -GG- segment] | – | – | – | increase in affinity for LPS compared to the peptide lacking the hydrophobic tail [1]: ~2 fold
KRFKKFFKKLKNSVKKRAKKFFKKPK (SEQ ID NO: 53) [NA-CATH26, first 26 residues of NA-CATH] | – | significantly lower degrees of β-lactamase leakage | – | decrease in affinity for LPS relative to NA-CATH ([1]; deletion of hydrophobic tail): ~30%
KRWKKWWKKWK (SEQ ID NO: 14) [ATRA1-W4] | higher efficacy to bind LPS than the parent ATRA1 | – | approximately 30 mins | –
RRFKRFFKRLK (SEQ ID NO: 9) [ATRA1-R3] | higher LPS binding than ATRA1 | in between those observed for ATRA1 and ATRA1-F | – | –
RRFRRFFRRLR (SEQ ID NO: 10) [ATRA1-R6] | bound LPS more effectively than ATRA1-R3 | – | approximately 30 mins | –
RRWKRFFKRWK (SEQ ID NO: 15) [ATRA1-R3W2] | more effective in LPS binding than either of ATRA1-R3 and ATRA1-W2; also recorded: binds LPS marginally greater than ATRA1 | Higher outer membrane disruption | approximately 30 mins | outer membrane disruption (β-lactamase activity) relative to HCMAB ([2]; HCMAB = 100%, listed as ATRA-R3W2): approximately 4%
RRWKRFFKRWKGGVIGVTFPF (SEQ ID NO: 50) [ATRA1-R3W2-HYD, ATRA1-R3W2 with hydrophobic tail of NA-CATH joined by -GG-] | binds LPS with similar affinity as ATRA1-HYD | 160% | – | increase in affinity for LPS compared to the peptide lacking the hydrophobic tail [1]: ~2 fold
